For orientation: Ki means a dissociation constant, usually derived from enzyme kinetics or from competition with a known ligand.

We go through 26 compounds from US10196390B2, “TYK2 inhibitors and uses thereof” (Nimbus Lakshmi, Inc., priority 2014, dated 2019).

One assay deals with JAK2 (Homo sapiens (Human), UniProt O60674). As to the kind of experiment: JAK2 activity inhibition assay (radioactive kinase assay / Caliper assay). Type of assay: biochemical. The note with it: read-out: JAK2 Ki. An outline of the steps:
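Reaction ran 25 min at 28° C after adding peptide/ATP mix (10 mM MgCl2) to compound and enzyme in HEPES pH 7.5 buffer with Brij-35, Triton and EGTA. EDTA stop, then microfluidic off-chip separation quantified phosphorylated peptide.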

In a further assay the target is TYK2 (Homo sapiens (Human), UniProt P29597). As to the kind of experiment: Tyk2 activity inhibition assay (radioactive kinase assay / Caliper assay). Type of assay: biochemical. The gist of the method: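 Two formats were used. Caliper off-chip mobility shift read phosphorylated peptide 30 (3 uM) after 25 min at 28° C with 9.75 nM TYK2 and ATP at 16 uM or 1 mM. Radioactive assay: 10 μM 33P-ATP, 20 μM peptide, 120 min room temp, P81 filter counting.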
Chain of TYK2 (P29597 whole entry): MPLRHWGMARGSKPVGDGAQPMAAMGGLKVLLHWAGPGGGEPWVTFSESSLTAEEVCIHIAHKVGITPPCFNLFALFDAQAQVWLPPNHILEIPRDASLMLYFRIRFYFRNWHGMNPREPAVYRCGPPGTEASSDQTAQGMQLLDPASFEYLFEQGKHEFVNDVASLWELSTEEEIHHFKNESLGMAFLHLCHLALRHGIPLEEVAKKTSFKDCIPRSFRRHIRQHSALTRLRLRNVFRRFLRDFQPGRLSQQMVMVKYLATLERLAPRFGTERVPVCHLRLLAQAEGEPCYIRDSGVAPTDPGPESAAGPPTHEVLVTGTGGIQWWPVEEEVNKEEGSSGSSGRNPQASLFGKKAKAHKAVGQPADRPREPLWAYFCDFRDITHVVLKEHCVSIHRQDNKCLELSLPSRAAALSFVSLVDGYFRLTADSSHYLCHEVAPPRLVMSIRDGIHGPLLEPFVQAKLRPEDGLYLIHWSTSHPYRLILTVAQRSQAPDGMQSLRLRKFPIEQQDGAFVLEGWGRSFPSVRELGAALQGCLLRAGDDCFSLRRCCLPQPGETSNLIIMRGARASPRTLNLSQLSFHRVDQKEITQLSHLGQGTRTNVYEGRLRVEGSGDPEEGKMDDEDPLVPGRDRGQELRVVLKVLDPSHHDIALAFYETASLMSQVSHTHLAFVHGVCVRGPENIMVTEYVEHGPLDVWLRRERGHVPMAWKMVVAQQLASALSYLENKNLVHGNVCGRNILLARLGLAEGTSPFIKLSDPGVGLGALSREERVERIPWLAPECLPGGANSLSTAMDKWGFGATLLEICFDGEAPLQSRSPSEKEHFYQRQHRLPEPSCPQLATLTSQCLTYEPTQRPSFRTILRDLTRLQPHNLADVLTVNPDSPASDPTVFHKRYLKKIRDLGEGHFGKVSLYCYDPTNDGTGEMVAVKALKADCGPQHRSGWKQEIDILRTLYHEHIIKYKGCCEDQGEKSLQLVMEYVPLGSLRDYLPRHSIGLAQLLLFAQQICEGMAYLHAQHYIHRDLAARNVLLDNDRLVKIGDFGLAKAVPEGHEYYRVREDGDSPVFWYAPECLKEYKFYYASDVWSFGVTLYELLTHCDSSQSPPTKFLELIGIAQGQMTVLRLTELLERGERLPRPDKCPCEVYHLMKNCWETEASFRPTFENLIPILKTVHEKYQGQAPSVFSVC

Chain of JAK2 (O60674 whole entry): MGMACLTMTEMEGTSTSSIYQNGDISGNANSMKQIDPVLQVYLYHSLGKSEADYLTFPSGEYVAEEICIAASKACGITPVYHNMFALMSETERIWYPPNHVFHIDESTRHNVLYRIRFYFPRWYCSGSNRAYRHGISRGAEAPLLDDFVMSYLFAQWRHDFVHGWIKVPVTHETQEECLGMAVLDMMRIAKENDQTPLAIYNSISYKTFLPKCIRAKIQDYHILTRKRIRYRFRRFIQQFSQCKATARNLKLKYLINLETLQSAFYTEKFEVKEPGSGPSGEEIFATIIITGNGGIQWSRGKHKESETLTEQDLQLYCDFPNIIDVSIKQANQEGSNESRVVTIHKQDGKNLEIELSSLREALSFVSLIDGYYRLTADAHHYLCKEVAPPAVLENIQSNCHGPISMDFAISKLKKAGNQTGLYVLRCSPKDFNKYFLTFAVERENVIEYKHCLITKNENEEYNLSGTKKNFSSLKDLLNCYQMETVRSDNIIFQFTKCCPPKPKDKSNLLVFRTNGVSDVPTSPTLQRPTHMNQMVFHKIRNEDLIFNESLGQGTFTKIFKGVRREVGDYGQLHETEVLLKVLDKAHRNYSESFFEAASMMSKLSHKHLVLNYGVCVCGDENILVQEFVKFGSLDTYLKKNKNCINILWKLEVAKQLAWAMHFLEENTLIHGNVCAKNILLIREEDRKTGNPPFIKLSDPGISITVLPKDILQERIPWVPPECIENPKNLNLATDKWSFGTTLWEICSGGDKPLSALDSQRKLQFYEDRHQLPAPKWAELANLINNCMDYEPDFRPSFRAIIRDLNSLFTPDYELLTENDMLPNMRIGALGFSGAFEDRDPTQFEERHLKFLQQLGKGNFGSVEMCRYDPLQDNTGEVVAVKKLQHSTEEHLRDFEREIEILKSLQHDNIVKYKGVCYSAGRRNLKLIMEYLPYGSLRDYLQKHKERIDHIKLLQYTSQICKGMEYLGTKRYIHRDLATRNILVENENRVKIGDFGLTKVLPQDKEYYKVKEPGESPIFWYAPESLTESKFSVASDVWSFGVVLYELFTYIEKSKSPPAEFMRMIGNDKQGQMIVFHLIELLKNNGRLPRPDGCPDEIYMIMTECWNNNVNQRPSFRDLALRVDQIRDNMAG

Consider `N[C@@H]1CCCN(c2ccc(Nc3cc(-c4c(F)cccc4F)nc4c3C(=O)NC4)nc2)C1` [Compound I-159, (R)-4-((5-(3-aminopiperidin-1-yl)pyridin-2-yl)amino)-2-(2,6-difluorophenyl)-6,7-dihydro-5H-pyrrolo[3,4-b]pyridin-5-one], for which the Ki at JAK2 and at TYK2 was less than 10 nM in each case.

As for `Cn1cc(Nc2nc(-c3c(F)cccc3F)nc3c2C(=O)NC3)cn1` [Compound I-160, 2-(2,6-difluorophenyl)-4-((1-methyl-1H-pyrazol-4-yl)amino)-6,7-dihydro-5H-pyrrolo[3,4-d]pyrimidin-5-one], the Ki is more than 1000 nM on JAK2 and 10 to 100 nM at TYK2.

On to `O=C1NCc2nc(-c3c(F)cccc3F)cc(Nc3ccc(N4CCNCC4)cn3)c21` [Compound I-162, 2-(2,6-difluorophenyl)-4-((5-(piperazin-1-yl)pyridin-2-yl)amino)-6,7-dihydro-5H-pyrrolo[3,4-b]pyridin-5-one], for which the Ki is 10 to 100 nM at JAK2 and less than 10 nM on TYK2.

Turning to `O=C(NCCO)c1ccc(Nc2cc(-c3c(F)cccc3F)nc3c2C(=O)NC3)nc1` [Compound I-164, 6-((2-(2,6-difluorophenyl)-5-oxo-6,7-dihydro-5H-pyrrolo[3,4-b]pyridin-4-yl)amino)-N-(2-hydroxyethyl)nicotinamide], the Ki is 10 to 100 nM on JAK2 and less than 10 nM at TYK2.

On to `O=C1NCc2nc(-c3c(F)cccc3F)nc(Nc3ccc(C(=O)N4CC(O)C4)cc3)c21` [Compound I-168, 2-(2,6-difluorophenyl)-4-((4-(3-hydroxyazetidine-1-carbo-nyl)phenyl)amino)-6,7-dihydro-5H-pyrrolo[3,4-d]pyrimidin-5-one], for which the results for the Ki at JAK2 and on TYK2 were 100 to 1000 nM and less than 10 nM, respectively.

Turning to `CC1(c2ccc(Nc3nc(-c4c(F)cccc4F)nc4c3C(=O)NC4)cc2)NC(=O)NC1=O` (stereo not shown) [Compound I-172, 5-(4-((2-(2,6-difluorophenyl)-5-oxo-6,7-dihydro-5H-pyrrolo[3,4-d]pyrimidin-4-yl)amino)phenyl)-5-methylimidazolidine-2,4-dione], the values for the Ki on JAK2 and on TYK2 were 10 to 100 nM and less than 10 nM, respectively.

With `C[C@@]1(c2ccc(Nc3nc(-c4c(F)cccc4F)nc4c3C(=O)NC4)cc2)NC(=O)NC1=O` [Compound I-173, (S)-5-(4-((2-(2,6-difluorophenyl)-5-oxo-6,7-dihydro-5H-pyrrolo[3,4-d]pyrimidin-4-yl)amino)phenyl)-5-methylimidazolidine-2,4-dione], the Ki on JAK2 is 10 to 100 nM; at TYK2, less than 10 nM.

Turning to `C[C@]1(c2ccc(Nc3nc(-c4c(F)cccc4F)nc4c3C(=O)NC4)cc2)NC(=O)NC1=O` [Compound I-174, (R)-5-(4-((2-(2,6-difluorophenyl)-5-oxo-6,7-dihydro-5H-pyrrolo[3,4-d]pyrimidin-4-yl)amino)phenyl)-5-methylimidazolidine-2,4-dione], the Ki was 10 to 100 nM at JAK2 and less than 10 nM at TYK2.

For `CCOC(=O)C(C)(C)c1ccc(Nc2nc(-c3c(F)cccc3F)nc3c2C(=O)NC3)cc1` [Compound I-178, ethyl 2-(4-((2-(2,6-difluorophenyl)-5-oxo-6,7-dihydro-5H-pyrrolo[3,4-d]pyrimidin-4-yl)amino)phenyl)-2-methylpropanoate], the Ki was 100 to 1000 nM on JAK2 and less than 10 nM on TYK2.

In the case of `O=C1NCc2nc(-c3c(F)cccc3F)nc(Nc3ccccc3)c21` [Compound I-179, 2-(2,6-difluorophenyl)-4-(phenylamino)-6,7-dihydro-5H-pyrrolo[3,4-d]pyrimidin-5-one], the Ki at JAK2 fell in the range of 100 to 1000 nM; at TYK2, 10 to 100 nM.

As for `O=C1NCc2nc(-c3c(F)cccc3F)nc(Nc3ccc(Cl)cc3)c21` [Compound I-180, 4-((4-chlorophenyl)amino)-2-(2,6-difluorophenyl)-6,7-dihydro-5H-pyrrolo[3,4-d]pyrimidin-5-one], the Ki on JAK2 was more than 1000 nM; at TYK2, 10 to 100 nM.

For `COc1ccc(Nc2nc(N3[C@H](C)CCC[C@@H]3C)nc3c2C(=O)NC3)cc1` [Compound I-183, 2-((2R,6S)-2,6-dimethylpiperidin-1-yl)-4-((4-methoxyphenyl)amino)-6,7-dihydro-5H-pyrrolo[3,4-d]pyrimidin-5-one], the Ki is 10 to 100 nM at JAK2 and less than 10 nM on TYK2.

On to `COCCOc1ccc(Nc2nc(-c3c(F)cccc3F)nc3c2C(=O)NC3)cc1` [Compound I-185, 2-(2,6-difluorophenyl)-4-((4-(2-methoxy-ethoxy)-phenyl)amino)-6,7-dihydro-5H-pyrrolo[3,4-d]pyrimidin-5-one], for which the Ki on JAK2 was 100 to 1000 nM; on TYK2, less than 10 nM.

For `O=C(O)Cc1ccc(Nc2cc(-c3c(F)cccc3F)nc3c2C(=O)NC3)nc1` [Compound I-186, 2-(6-((2-(2,6-difluorophenyl)-5-oxo-6,7-dihydro-5H-pyrrolo[3,4-b]pyridin-4-yl)amino)pyridin-3-yl)acetic Acid], the Ki at JAK2 was 100 to 1000 nM; on TYK2, less than 10 nM.

On to `CN1CC2(C1)CN(c1ccc(Nc3cc(-c4c(F)cccc4F)nc4c3C(=O)NC4)nc1)C2` [Compound I-187, 2-(2,6-difluorophenyl)-4-((5-(6-methyl-2,6-diazaspiro-[3.3]heptan-2-yl)pyridin-2-yl)amino)-6,7-dihydro-5-pyrrolo[3,4-b]pyridin-5-one], for which the Ki at JAK2 was 10 to 100 nM; on TYK2, less than 10 nM.

For the compound `CC(C(=O)O)c1ccc(Nc2nc(-c3c(F)cccc3F)nc3c2C(=O)NC3)cc1` (stereo not shown) [Compound I-189, 2-(4-((2-(2,6-difluorophenyl)-5-oxo-6,7-dihydro-5H-pyrrolo[3,4-d]pyrimidin-4-yl)amino)phenyl)propanoic Acid], the Ki at JAK2 was 100 to 1000 nM; at TYK2, less than 10 nM.

On to `O=C1NC(=O)C(c2ccc(Nc3nc(-c4c(F)cccc4F)nc4c3C(=O)NC4)cc2)S1` (stereo not shown) [Compound I-192, 5-(4-((2-(2,6-difluorophenyl)-5-oxo-6,7-dihydro-5H-pyrrolo[3,4-d]pyrimidin-4-yl)amino)phenyl)thiazolidine-2,4-dione], for which the inhibitory constant (Ki) on JAK2 is 100 to 1000 nM; at TYK2, less than 10 nM.

As for `CN(CC(C)(C)O)C(=O)Cc1ccc(Nc2nc(-c3c(F)cccc3F)nc3c2C(=O)NC3)cc1` [Compound I-193, 2-(4-((2-(2,6-difluorophenyl)-5-oxo-6,7-dihydro-5H-pyrrolo[3,4-d]pyrimidin-4-yl)amino)phenyl)-N-(2-hydroxy-2-methylpropyl)-N-methylacetamide], the Ki is 100 to 1000 nM on JAK2 and less than 10 nM at TYK2.

On to `O=C1NCc2nc(-c3c(F)cccc3F)nc(Nc3ccc(CC(=O)N4CCOC[C@@H]4C(=O)O)cc3)c21` [Compound I-194, (R)-4-(2-(4-((2-(2,6-difluorophenyl)-5-oxo-6,7-dihydro-5H-pyrrolo[3,4-d]pyrimidin-4-yl)amino)phenyl)acetyl)morpholine-3-carboxylic Acid], for which the Ki at JAK2 was in the range of 100 to 1000 nM; at TYK2, 10 to 100 nM.

Turning to `CC(C(=O)N1CCCCC1)c1ccc(Nc2nc(-c3c(F)cccc3F)nc3c2C(=O)NC3)cc1` (stereo not shown) [Compound I-198, 2-(2,6-difluorophenyl)-4-((4-(1-oxo-1-(piperidin-1-yl)propan-2-yl)phenyl)amino)-6,7-dihydro-5H-pyrrolo[3,4-d]pyrimidin-5-one], the Ki at JAK2 was 100 to 1000 nM; on TYK2 it was less than 10 nM.

As to `CCNC(=O)Cc1ccc(Nc2cc(-c3c(F)cccc3Cl)nc3c2C(=O)NC3)nc1` [Compound I-199, 2-(6-((2-(2-chloro-6-fluorophenyl)-5-oxo-6,7-dihydro-5H-pyrrolo[3,4-b]pyridin-4-yl)amino)pyridin-3-yl)-N-ethylacetamide], the results for the Ki on JAK2 and on TYK2 were 10 to 100 nM and less than 10 nM, respectively.

On to `COC(=O)Cc1ccc(Nc2cc(-c3c(F)cccc3Cl)nc3c2C(=O)NC3)nc1` [Compound I-200, methyl 2-(6-((2-(2-chloro-6-fluorophenyl)-5-oxo-6,7-dihydro-5H-pyrrolo[3,4-b]pyridin-4-yl)amino)pyridin-3-yl)acetate], for which the values for the inhibition constant (Ki) on JAK2 and at TYK2 were 10 to 100 nM and less than 10 nM, respectively.

Take `COC(=O)C1COCCN1C(=O)Cc1ccc(Nc2nc(-c3c(F)cccc3F)nc3c2C(=O)NC3)cc1` (stereo not shown) [Compound I-201, methyl 4-(2-(4-((2-(2,6-difluorophenyl)-5-oxo-6,7-dihydro-5H-pyrrolo[3,4-d]pyrimidin-4-yl)amino)phenyl)acetyl)morpholine-3-carboxylate]: the Ki on JAK2 is 100 to 1000 nM; at TYK2 it was less than 10 nM.

For the compound `O=C1NCc2nc(-c3c(F)cccc3F)nc(Nc3ccc(CC(=O)N4CCOCC4C(=O)O)cc3)c21` (stereo not shown) [Compound I-202, 4-(2-(4-((2-(2,6-difluorophenyl)-5-oxo-6,7-dihydro-5H-pyrrolo-[3,4-d]pyrimidin-4-yl)amino)phenyl)acetyl)morpholine-3-carboxylic Acid], the Ki was 100 to 1000 nM on JAK2 and less than 10 nM on TYK2.

`C=C(C(=O)NCC)c1ccc(Nc2nc(-c3c(F)cccc3F)nc3c2C(=O)NC3)cc1` [Compound I-203, 2-(4-((2-(2,6-difluorophenyl)-5-oxo-6,7-dihydro-5H-pyrrolo[3,4-d]pyrimidin-4-yl)amino)phenyl)-N-ethylacrylamide]: the Ki at JAK2 was 100 to 1000 nM; at TYK2 it was 10 to 100 nM.

Turning to `O=C1NCc2nc(-c3c(F)cccc3Cl)cc(Nc3ccc(N4CCCC4)cn3)c21` [Compound I-204, 2-(2-chloro-6-fluorophenyl)-4-((5-(pyrrolidin-1-yl)pyridin-2-yl)amino)-6,7-dihydro-5H-pyrrolo[3,4-b]pyridin-5-one], the inhibitory constant (Ki) at JAK2 is more than 1000 nM; at TYK2, less than 10 nM.
